In patent US9771341B2, “Piperazine carbamates and methods of making and using same” (Abide Therapeutics, Inc., priority 2015, dated 2017):

Columns and labels:
MAGL [1] = biological target: T1, MAGL (Mus musculus, UniProt O35678); assay: In vitro competitive activity-based protein profiling (mouse), MAGL; format: biochemical; details: for inhibition at 1 µM: mouse proteome, in vitro, read-out: % Inhibition at 1 μM MAGL; for IC50: mouse brain membrane fraction or cell lysates, 30 min preincubation at 37° C, FP-Rh probe
T1 construct: Proteomes (mouse brain membrane fraction or cell lysates); from tissue; host or cells: mouse brain membrane fraction (or unspecified cell lysates)
T1 sequence (O35678 1-303): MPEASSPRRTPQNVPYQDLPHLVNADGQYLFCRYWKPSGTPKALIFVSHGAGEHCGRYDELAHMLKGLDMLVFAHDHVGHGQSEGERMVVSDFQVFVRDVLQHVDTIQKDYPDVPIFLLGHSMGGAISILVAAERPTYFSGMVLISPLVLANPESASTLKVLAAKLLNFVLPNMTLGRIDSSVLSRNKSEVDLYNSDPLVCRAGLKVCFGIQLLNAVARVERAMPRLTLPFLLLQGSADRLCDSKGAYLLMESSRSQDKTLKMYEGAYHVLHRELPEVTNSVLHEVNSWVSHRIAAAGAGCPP
Experimental: (§1) In Vitro Competitive Activity-Based Protein Profiling (Mouse).
(§2) Proteomes (mouse brain membrane fraction or cell lysates) (50 μL, 1.0 mg/mL total protein concentration) were preincubated with varying concentrations of inhibitors at 37° C. After 30 min, FP-Rh (1.0 μL, 50 μM in DMSO) was added and the mixture was incubated for another 30 min at 37° C. Reactions were quenched with SDS loading buffer (50 μL-4×) and run on SDS-PAGE.

FAAH [2] = biological target: T2, FAAH (Mus musculus, UniProt O08914); assay: In vitro competitive activity-based protein profiling (mouse), FAAH; format: biochemical; details: for inhibition at 1 µM: mouse proteome, in vitro; for IC50: mouse brain membrane fraction or cell lysates, 30 min preincubation at 37° C, FP-Rh probe
T2 construct: Proteomes (mouse brain membrane fraction or cell lysates); from tissue; host or cells: mouse brain membrane fraction (or unspecified cell lysates)
T2 sequence (O08914 1-579): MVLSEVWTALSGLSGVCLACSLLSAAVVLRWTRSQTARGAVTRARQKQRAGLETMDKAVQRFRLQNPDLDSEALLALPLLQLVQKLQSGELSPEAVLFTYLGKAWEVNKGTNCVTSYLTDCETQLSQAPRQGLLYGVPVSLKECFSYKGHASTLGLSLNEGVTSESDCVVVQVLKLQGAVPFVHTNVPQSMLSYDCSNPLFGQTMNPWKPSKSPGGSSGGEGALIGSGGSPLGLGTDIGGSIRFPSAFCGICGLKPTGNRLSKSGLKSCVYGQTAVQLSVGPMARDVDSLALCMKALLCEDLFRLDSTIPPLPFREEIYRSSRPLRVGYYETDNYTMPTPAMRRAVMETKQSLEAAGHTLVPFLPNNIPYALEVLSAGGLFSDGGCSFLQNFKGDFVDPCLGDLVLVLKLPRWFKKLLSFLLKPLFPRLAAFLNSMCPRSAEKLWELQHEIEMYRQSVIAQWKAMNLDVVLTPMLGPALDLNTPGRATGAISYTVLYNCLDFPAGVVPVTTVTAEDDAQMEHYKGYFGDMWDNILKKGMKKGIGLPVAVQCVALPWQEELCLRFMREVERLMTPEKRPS
Procedure, shortened: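 Competitive ABPP: inhibitor exposure (30 min, 37° C) of mouse brain membrane or lysate proteome at 1.0 mg/mL, then labelling with FP-Rh for another 30 min. Activity quantified by in-gel fluorescence of FAAH bands after SDS-PAGE.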

FAAH [3] = biological target: T2, FAAH; assay: Mouse brain proteomes from inhibitor treated mice, FAAH; format: in vivo; details: 5 mg/kg oral gavage, C57Bl/6J mice, brain proteome 4 h after administration
Experimental: (§3) Preparation of Mouse Brain Proteomes from Inhibitor Treated Mice.
Inhibitors were administered to wild-type C57Bl/6J by oral gavage in a vehicle of polyethylene glycol. Each animal was sacrificed 4 h following administration and brain proteomes were prepared and analyzed according to previously established methods (See Niphakis, M. J., et al. (2011) ACS Chem. Neurosci. and Long, J. Z., et al. Nat. Chem. Biol. 5:37-44)

MAGL [4] = biological target: T1, MAGL; assay: Mouse brain proteomes from inhibitor treated mice, MAGL; format: in vivo; details: 5 mg/kg oral gavage, C57Bl/6J mice, brain proteome 4 h after administration
Experimental: as §3
(§4) Inhibitors were administered to wild-type C57Bl/6J by oral gavage in a vehicle of polyethylene glycol.

ABHD6 [5] = biological target: T3, ABHD6 (Mus musculus, UniProt Q8R2Y0); assay: Mouse brain proteomes from inhibitor treated mice, ABHD6; format: in vivo; details: 5 mg/kg oral gavage, C57Bl/6J mice, brain proteome 4 h after administration
T3 construct: Proteomes (mouse brain membrane fraction or cell lysates); from tissue; host or cells: mouse brain membrane fraction (or unspecified cell lysates)
T3 sequence (Q8R2Y0 1-336): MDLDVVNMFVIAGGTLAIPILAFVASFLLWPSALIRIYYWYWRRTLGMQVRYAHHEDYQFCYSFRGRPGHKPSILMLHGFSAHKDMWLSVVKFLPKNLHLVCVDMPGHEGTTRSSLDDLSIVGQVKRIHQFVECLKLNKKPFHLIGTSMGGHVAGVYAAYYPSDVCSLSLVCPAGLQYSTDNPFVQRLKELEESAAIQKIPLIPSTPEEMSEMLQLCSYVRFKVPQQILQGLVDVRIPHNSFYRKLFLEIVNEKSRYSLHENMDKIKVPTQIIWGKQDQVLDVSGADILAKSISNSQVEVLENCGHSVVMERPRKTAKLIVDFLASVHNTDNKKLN
Experimental: as §3, §4

ABHD6 [6] = biological target: T3, ABHD6; assay: In vitro competitive activity-based protein profiling (mouse), ABHD6; format: biochemical; details: for inhibition at 1 µM: mouse proteome, in vitro, read-out: % Inhibition at 1 μM ABHD6; for IC50: mouse brain membrane fraction or cell lysates, 30 min preincubation at 37° C, FP-Rh probe
Experimental: as §1, §2

SMILES | inhibition at 1 µM (MAGL [1]) [%] | IC50 (MAGL [1]) [nM] | inhibition at 1 µM (FAAH [2]) [%] | IC50 (FAAH [2]) [nM] | inhibition at 5 mg/kg (FAAH [3]) [%] | inhibition at 5 mg/kg (MAGL [4]) [%] | inhibition at 5 mg/kg (ABHD6 [5]) [%] | inhibition at 1 µM (ABHD6 [6]) [%] | IC50 (ABHD6 [6]) [nM]
O=C(OC(C(F)(F)F)C(F)(F)F)N1CCN(Cc2cccc(OC(F)(F)F)c2N2CC3CCC(C2)O3)CC1 [Example 31, 1,1,1,3,3,3-hexafluoropropan-2-yl 4-(2-(8-oxa-3-azabicyclo[3.2.1]octan-3-yl)-3-(trifluoromethoxy)benzyl)piperazine-1-carboxylate] | > 75 | < 100 | < 25 | > 1000 | < 25 | 25 to 75 | < 25 | < 25 | > 1000
O=C(OC(C(F)(F)F)C(F)(F)F)N1CCN(Cc2ccc(C(F)(F)F)c(N3CC4CCC(C3)O4)c2)CC1 [Example 26, 1,1,1,3,3,3-hexafluoropropan-2-yl 4-(3-(8-oxa-3-azabicyclo[3.2.1]octan-3-yl)-4-(trifluoromethyl)benzyl)piperazine-1-carboxylate] | > 75 | < 100 | < 25 | > 1000 | < 25 | > 75 | > 75 | > 75 | 100 to 1000
O=C(OC(C(F)(F)F)C(F)(F)F)N1CCN(Cc2ccc(Cl)cc2N2CC[C@H](N3CCCCC3=O)C2)CC1 [Example 44, 1,1,1,3,3,3-hexafluoropropan-2-yl (S)-4-(4-chloro-2-(3-(2-oxopiperidin-1-yl)pyrrolidin-1-yl)benzyl)piperazine-1-carboxylate] | > 75 | < 100 | < 25 | > 1000 | < 25 | < 25 | < 25 | < 25 | > 1000
O=C(OC(C(F)(F)F)C(F)(F)F)N1CCN(Cc2cccc(OC(F)(F)F)c2N2CCC(N3CCCC3)CC2)CC1 [Example 32, 1,1,1,3,3,3-hexafluoropropan-2-yl 4-(2-(4-(pyrrolidin-1-yl)piperidin-1-yl)-3-(trifluoromethoxy)benzyl)piperazine-1-carboxylate] | > 75 | < 100 | < 25 | > 1000 | < 25 | < 25 | < 25 | < 25 | > 1000
CS(=O)(=O)N[C@H]1CCN(c2cc(Cl)ccc2CN2CCN(C(=O)OC(C(F)(F)F)C(F)(F)F)CC2)C1 [Example 40, 1,1,1,3,3,3-hexafluoropropan-2-yl (S)-4-(4-chloro-2-(3-(methylsulfonamido)pyrrolidin-1-yl)benzyl)piperazine-1-carboxylate] | > 75 | < 100 | < 25 | > 1000 | < 25 | > 75 | < 25 | < 25 | > 1000
NC(=O)C1CCN(c2cc(Cl)ccc2CN2CCN(C(=O)OC(C(F)(F)F)C(F)(F)F)CC2)CC1 [Example 33, 1,1,1,3,3,3-hexafluoropropan-2-yl 4-(2-(4-carbamoylpiperidin-1-yl)-4-chlorobenzyl)piperazine-1-carboxylate] | > 75 | < 100 | < 25 | > 1000 | < 25 | > 75 | > 75 | > 75 | 100 to 1000

Further lines, results first:

inhibition at 1 µM (MAGL [1]) [%] | IC50 (MAGL [1]) [nM] | inhibition at 1 µM (FAAH [2]) [%] | IC50 (FAAH [2]) [nM] | inhibition at 5 mg/kg (FAAH [3]) [%] | inhibition at 5 mg/kg (MAGL [4]) [%] | inhibition at 5 mg/kg (ABHD6 [5]) [%] | inhibition at 1 µM (ABHD6 [6]) [%] | IC50 (ABHD6 [6]) [nM] | SMILES
> 75 | < 100 | < 25 | > 1000 | < 25 | > 75 | < 25 | < 25 | > 1000 | Cc1cccc(CN2CCN(C(=O)OC(C(F)(F)F)C(F)(F)F)CC2)c1N1CC[C@H](CF)C1 [Example 56, 1,1,1,3,3,3-hexafluoropropan-2-yl (S)-4-(2-(3-(fluoromethyl)pyrrolidin-1-yl)-3-methylbenzyl)piperazine-1-carboxylate]
> 75 | 100 to 1000 | < 25 | > 1000 | < 25 | > 75 | > 75 | 25 to 75 | 100 to 1000 | O=C(O)[C@@H]1CCCN1c1cc(CN2CCN(C(=O)OC(C(F)(F)F)C(F)(F)F)CC2)cc(C(F)(F)F)c1 [Example 86, (3-((4-(((1,1,1,3,3,3-hexafluoropropan-2-yl)oxy)carbonyl)piperazin-1-yl)methyl)-5-(trifluoromethyl)phenyl)proline]
> 75 | < 100 | < 25 | > 1000 | < 25 | > 75 | < 25 | < 25 | > 1000 | CS(=O)(=O)N[C@@H]1CCN(c2cc(C(F)(F)F)ccc2CN2CCN(C(=O)OC(C(F)(F)F)C(F)(F)F)CC2)C1 [Example 60, 1,1,1,3,3,3-hexafluoropropan-2-yl (R)-4-(2-(3-(methylsulfonamido)pyrrolidin-1-yl)-4-(trifluoromethyl)benzyl)piperazine-1-carboxylate]
> 75 | < 100 | < 25 | > 1000 | < 25 | 25 to 75 | < 25 | > 75 | 100 to 1000 | O=C(OC(C(F)(F)F)C(F)(F)F)N1CCN(Cc2ccc(Cl)cc2N2CC[C@@H](N3CCCS3(=O)=O)C2)CC1 [Example 45, 1,1,1,3,3,3-hexafluoropropan-2-yl (R)-4-(4-chloro-2-(3-(1,1-dioxidoisothiazolidin-2-yl)pyrrolidin-1-yl)benzyl)piperazine-1-carboxylate]
> 75 | < 100 | < 25 | > 1000 | < 25 | > 75 | < 25 | < 25 | > 1000 | O=C(OC(C(F)(F)F)C(F)(F)F)N1CCN(Cc2ccc(C(F)(F)F)cc2N2CC[C@H](CF)C2)CC1 [Example 54, 1,1,1,3,3,3-hexafluoropropan-2-yl (S)-4-(2-(3-(fluoromethyl)pyrrolidin-1-yl)-4-(trifluoromethyl)benzyl)piperazine-1-carboxylate]
> 75 | < 100 | < 25 | > 1000 | < 25 | > 75 | < 25 | < 25 | > 1000 | O=C(OC(C(F)(F)F)C(F)(F)F)N1CCN(Cc2cccc(Cl)c2N2CC3CCC(C2)O3)CC1 [Example 57, 1,1,1,3,3,3-hexafluoropropan-2-yl 4-(2-(8-oxa-3-azabicyclo[3.2.1]octan-3-yl)-3-chlorobenzyl)piperazine-1-carboxylate]
